From patent publication US12403117B2, “Stable pharmaceutical composition containing non-steroidal anti-inflammatory drug derivative” (ZHEJIANG YUEJIA PHARMACEUTICALS CO., LTD, priority 2017, dated 2025)
“And” between values parts separate entries of the source, which are not always exact repeats. Equal values may be shown once.

Key:
Type in all cases: physicochemical
[1] = Stability of aqueous solution of 2-(diethylamino)-ethyl-2-(4-isobutylphenyl) propionate hydrochloride at 25° C.±2° C. (HPLC); conditions: 10 g in 50 mL sterile water
Procedure: 10 g of 2-(diethylamino)-ethyl-2-(4-isobutylphenyl) propionate hydrochloride prepared in Example 5 was dissolved in 50 mL of sterile water and placed at 25° C.±2° C. Samples were taken on day 0, week 1, week 2, week 3 and week 4 to detect the contents of the main drug and specific impurities (ibuprofen), wherein the content of the main drug and specific impurities were detected by high-performance liquid chromatography (area normalization). The conditions of HPLC were as follows: • Column: Inertsil ODS-3 (250×4.6 mm, 5 μm) or equivalent • Flow rate: 1.0 ml/min • Column temperature: 33° C. • Wavelength: 264 nm • Injection volume: 10 μl • Mobile phase: (3.065 g sodium acetate+150 ml acetic acid+375 ml water): acetonitrile (35:65).

[2] = Repose angle by injection method
Source text: The “repose angle” formed by stacking the powders or particles reflects its fluidity. The term “repose angle” generally refers to the maximum angle formed by the free slope of the layer of the stacked powders or particles and the horizontal plane. The smaller the repose angle, the smaller the friction between the powders or particles, and the better the fluidity. Better fluidity is more convenient for dissolution and use of the powders or particles. Methods for measuring the repose angle are well known to those skilled in the art. The repose angle is measured by an “injection method” in the examples of the invention, that is, the particles flow out of the funnel and fall on the plane to form a cone, and the base angle is the repose angle.

[3] = Stability of aqueous solution of 2-(diethylamino)-ethyl-2-acetoxybenzoate hydrochloride at 2-8° C. (HPLC); conditions: 5 g in 50 mL sterile water
Procedure: 5 g of 2-(diethylamino)-ethyl-2-acetoxybenzoate hydrochloride prepared in Example 1 was dissolved in 50 mL of sterile water and placed at 2-8° C. Samples were taken on day 0, month 0.5, month 1, month 2 and month 3 to detect the contents of the main drug and specific impurities (salicylic acid-(2-diethylaminoethyl ester) hydrochloride, acetylsalicylic acid, salicylic acid) and related substances, wherein the content of the main drug and specific impurities were detected by high-performance liquid chromatography (external standard method), and the related substances were detected by high-performance liquid chromatography (principal component self-control method without correction factors). The conditions of HPLC were as follows: • Column: Inertsil ODS-3 (250×4.6 mm, 5 μm) or equivalent • Flow rate: 1.0 ml/min • Column temperature: 33° C. • Wavelength: 276 nm, 303 nm • Injection volume: 10 μl • Mobile phase: water (15 ml of triethylamine+3.5 ml of 10% tetrabutylammonium hydroxide, adding water to 1000 ml): methanol: glacial acetic acid (63:27:10).

[4] = Acidity: pH value of the aqueous solution; conditions: 25 ± 0.5° C.
Dissociation constant = assay: Dissociation constant
Source text: (§1) The physical and chemical properties of the synthesized crystals of 2-(diethylamino)-ethyl-2-acetoxybenzoate hydrochloride are shown in Table 1.

[5] = Solubility (physical and chemical properties, Table 1)
Source text: as §1

In the case of `CCN(CC)CCOC(=O)C(C)c1ccc(CC(C)C)cc1.Cl` (stereo not shown) [2-(diethylamino)-ethyl-2-(4-isobutylphenyl) propionate hydrochloride], the “Ibuprofen (impurity)” value ([1]; week 0) is reported as “Not detected”, the Main Drug ([1]; week 0) is reported as 100.00% and the Unknown peak ([1]; week 0) is reported as “Not detected”. The “Ibuprofen (impurity)” value ([1]; week 1) was 0.39%, the Main Drug ([1]; week 1) was 99.51% and the Unknown peak ([1]; week 1) was 0.10%. The “Ibuprofen (impurity)” value ([1]; week 2) was 1.69%, the Main Drug ([1]; week 2) was 98.12% and the Unknown peak ([1]; week 2) was 0.19%. For the same compound, the “Ibuprofen (impurity)” value ([1]; week 3) was 4.04%, the Main Drug ([1]; week 3) was 95.83% and the Unknown peak ([1]; week 3) was 0.13%. It also gave an Unknown peak ([1]; week 4) of 0.21% and a Repose angle [2] of 40 °.
For `CCN(CC)CCOC(=O)c1ccccc1OC(C)=O.Cl` [2-(diethylamino)-ethyl-2-acetoxybenzoate hydrochloride], the “Main Drug” value ([3]; month 0) was 99.48%, the “Salicylic acid (impurity)” value ([3]; month 0) was 0.0028% and the “Salicylic acid-(2-diethylaminoethyl ester) hydrochloride (impurity)” value ([3]; month 0) was 0.51%. The “Main Drug” value ([3]; month 0.5) was 99.32%, the “Salicylic acid (impurity)” value ([3]; month 0.5) was 0.0035% and the “Salicylic acid-(2-diethylaminoethyl ester) hydrochloride (impurity)” value ([3]; month 0.5) was 0.67%. The “Acetylsalicylic acid (impurity)” value ([3]; month 1) was 0.018%, the “Main Drug” value ([3]; month 1) was 97.59% and the “Salicylic acid (impurity)” value ([3]; month 1) was 0.0044%. The “Salicylic acid-(2-diethylaminoethyl ester) hydrochloride (impurity)” value ([3]; month 1) was 2.38%, the “Acetylsalicylic acid (impurity)” value ([3]; month 2) was 0.033% and the “Main Drug” value ([3]; month 2) was 94.86%. The “Salicylic acid (impurity)” value ([3]; month 2) was 0.012%, the “Salicylic acid-(2-diethylaminoethyl ester) hydrochloride (impurity)” value ([3]; month 2) was 5.09% and the “Acetylsalicylic acid (impurity)” value ([3]; month 3) was 0.042%. The “Salicylic acid (impurity)” value ([3]; month 3) was 0.049%, the “Main Drug” value ([3]; month 3, hydrochloride) was 86% and 86.55% and the “Acidity: pH value of the 2% aqueous solution” value [4] was “product at 25 ± 0.5 °C is 4.0-6.0”. For the same compound, the Dissociation constant (Dissociation constant) was 8.82, the Repose angle [2] was 42° and the Solubility ([5]; in acetone) was “slightly soluble”. For the same compound, the Solubility ([5]; in ethyl acetate and ether) was “insoluble” and the Solubility ([5]; in water) was “extremely soluble”.
